Data on five molecules can be found in ChEMBL document CHEMBL5260849, “Current advances in Vibrio harveyi quorum sensing as drug discovery targets” (Eur J Med Chem, 2020).

≈ marks a conversion by molar mass, not a printed value.

Assay [1] in a line: Inhibition of quorum-sensing system in Vibrio harveyi assessed as inhibition of bioluminescence at 20 uM by bioluminescence assay.
Assay [2] deals with Vibrio harveyi. Put plainly: Antibacterial activity against Vibrio harveyi infected […] franciscana assessed as increase in survival rate at 20 uM and measured after 60 hrs by light microscopy. In kind it is functional.
In assay [3] the test system is Vibrio harveyi. Briefly: Antibiofilm activity against Vibrio harveyi MTCC 3438 assessed as inhibition of biofilm formation at 250 ug/ml for 16 hrs by crystal violet staining based spectrophotometric assay. In kind it is functional.
The subject of assay [4] is Vibrio harveyi. Briefly: Inhibition of biofilm formation in Vibrio harveyi MTCC 3438 assessed as reduction in exopolysaccharides production at 250 ug/ml for 24 hrs by spectrophotometric assay. It counts as functional.
Assay [5] relates to Vibrio harveyi. Briefly: Antibacterial activity against Vibrio harveyi MTCC 3438 assessed as reduction in cell surface hydrophobicity at 250 ug/ml for 10 mins by BATH assay. In kind it is functional. The conditions noted are these: MTCC 3438, 10 min.
In assay [6] the test system is Vibrio harveyi. Put plainly: Antibacterial activity against Vibrio harveyi MTCC 3438 infected Litopenaeus vannamei larvae assessed as increase in survival rate at 250 ug/ml and measured upto 96 hrs. It counts as functional.
Assay [7] can be described thus: Inhibition of quorum sensing system in Vibrio harveyi MTCC 3438 assessed fold decrease in luxS expression at 250 ug/ml by qPCR assay. Conditions: dose 250.0 µg/ml.
Assay [8] in a line: Inhibition of quorum sensing system in Vibrio harveyi MTCC 3438 assessed fold decrease in luxP expression at 250 ug/ml by qPCR assay. Conditions: dose 250.0 µg/ml. On the technique in general: Quantitative PCR measures a nucleic acid by following its amplification.
Assay [9] is described as follows: Inhibition of quorum sensing system in Vibrio harveyi MTCC 3438 assessed fold decrease in luxQ expression at 250 ug/ml by qPCR assay. Conditions: dose 250.0 µg/ml.
Assay [10] is described as follows: Inhibition of quorum sensing system in Vibrio harveyi MTCC 3438 assessed fold decrease in luxO expression at 250 ug/ml by qPCR assay. Conditions: dose 250.0 µg/ml.
Assay [11] can be described thus: Inhibition of quorum sensing system in Vibrio harveyi MTCC 3438 assessed fold decrease in luxR expression at 250 ug/ml by qPCR assay. The conditions noted are these: dose 250.0 µg/ml.
Assay [12] has as its system Vibrio harveyi. Put plainly: Antibiofilm activity against Vibrio harveyi BB170 assessed as inhibition of biofilm formation at 200 uM by Crystal violet biofilm assay. It counts as functional.
Assay [13] can be described thus: Inhibition of quorum-sensing system in Vibrio harveyi BB152 assessed as inhibition of QS-mediated bioluminescence at 0.02 to 200 uM incubated for 18 hrs by Luminescence assay. Conditions: dose 0.02-200 µM.
The nature of assay [14]: Inhibition of quorum-sensing system in Vibrio harveyi BB170 assessed as inhibition of QS-mediated bioluminescence at 0.02 to 200 uM incubated for 18 hrs by Luminescence assay. The conditions noted are these: dose 0.02-200 µM.
A short description of assay [15]: Inhibition of quorum-sensing system in Vibrio harveyi MM77 assessed as inhibition of QS-mediated bioluminescence at 0.02 to 200 uM incubated for 18 hrs by Luminescence assay. Conditions: dose 0.02-200 µM.
For assay [16], the system named is Vibrio harveyi. Put plainly: Antimicrobial activity against Vibrio harveyi BB120 assessed as decrease in swimming motility at 200 ug/ml incubated for 15 hrs by agar plate reader analysis. Conditions: dose 200 µg/ml. In kind it is functional. Further details: scale not given: the % may be the effect or the level left.
Assay [17] deals with Vibrio harveyi. Briefly: Antimicrobial activity against Vibrio harveyi BB152 assessed as decrease in swimming motility at 200 ug/ml incubated for 15 hrs by agar plate reader analysis. It counts as functional. Further details: scale not given: the % may be the effect or the level left. The conditions noted are these: dose 200 µg/ml.
The test system of assay [18] is Vibrio harveyi. Put plainly: Antimicrobial activity against Vibrio harveyi MM30 assessed as decrease in swimming motility at 200 ug/ml incubated for 15 hrs by agar plate reader analysis. It counts as functional. Further details: scale not given: the % may be the effect or the level left. The conditions noted are these: dose 200 µg/ml.
In assay [19] the test system is Vibrio harveyi. Briefly: Inhibition of biofilm formation in Vibrio harveyi BB152 at 200 ug/ml for 24 hrs by crystal violet assay. It counts as functional.
Assay [20] relates to Vibrio harveyi. Briefly: Inhibition of biofilm formation in Vibrio harveyi MM77 assessed as inhibition of exopolysaccharides production at 200 uM incubated for 24 hrs by Fluorescence assay. In kind it is functional.
Assay [21] concerns Vibrio harveyi. Briefly: Antibacterial activity against Vibrio harveyi MTCC 3438 assessed as bacterial growth inhibition incubated for 24 hrs by broth microdilution assay. In kind it is functional. (Broth dilution looks for growth in wells or tubes with falling amounts of substance.)

As for `O=S(=O)(c1ccc(Br)s1)n1cccn1`, the inhibition in assay [1] turned out to be 100%. The survival at 20 µM with Vibrio harveyi [2] was determined as 85.5%.

Consider `Cc1cc(C(C)(C)C)c(O)c(C(C)(C)C)c1` [BUTYLATED HYDROXYTOLUENE], for which the inhibition at 250 µg/mL in the assay with Vibrio harveyi [3] was 80%; with Vibrio harveyi [4], 65%; in the assay with Vibrio harveyi [5] it was 82%. In addition, in the assay with Vibrio harveyi [6], the survival at 250 µg/mL amounted to 75%. Further, the fold change (FC) in [7] is 0.9; in assay [8], 0.7; in [9], 0.5; in assay [10] it was 0.1; in [11], 1.9.

As to `CC(=O)C(=O)C(F)CO` (stereo unspecified), in the assay on Vibrio harveyi [12], the inhibition at 200 µM is 90%.

As to `CCCCCCC(C)(C)c1cc(O)c2c(c1)OC(C)(C)[C@@H]1CC=C(CO)C[C@@H]21`, the figures for the inhibition in assay [13], in assay [14] and in assay [15] were 98%, 85% and 95%, respectively. Further, the Activity is 80% in the assay on Vibrio harveyi [16], 85% with Vibrio harveyi [17] and 95% in the assay on Vibrio harveyi [18]. This molecule also registered an inhibition at 200 µg/mL in the assay with Vibrio harveyi [19] of 80%. In addition, the inhibition at 200 µM in the assay with Vibrio harveyi [20] amounted to 75%.

Take `O=C(O)[C@@H]1[C@H](C(=O)O)[C@@H]2C=C[C@H]1C2`: the MIC with Vibrio harveyi [21] amounted to 8 µg/mL (≈ 43.9 µM).

Broadly, the inhibition is the change of the read-out against control, counted positive when it falls. The term MIC denotes the lowest concentration that inhibits growth of the organism.
